IC50 data for 27 compounds are collected here from patent US9975907B2, “Pyrimidinones as PI3K inhibitors” (Incyte Corporation, priority 2009, dated 2018).

Counter-ions that a name gives are not always drawn. Where only a bound is given, the exact number is not on record here.

This assay has as its target PI3Kδ (p110δ/p85α) (Homo sapiens (Human), UniProt O00329). In words: PI3Kδ Scintillation Proximity Assay (Assay A3). The assay is classed as biochemical. The following applies: column b, Assay A3 (SPA), 20 μM ATP. An excerpt:
[γ-^33P]ATP (10 mCi/mL) was purchased from Perkin-Elmer (Waltham, Mass.). Lipid kinase substrate, D-myo-Phosphatidylinositol 4,5-bisphosphate (PtdIns(4,5)P2)D (+)-sn-1,2-di-O-octanoylglyceryl, 3-O-phospho linked (PIP2), CAS 204858-53-7, was purchased from Echelon Biosciences (Salt Lake City, Utah). PI3Kδ (p110δ/p85α) was purchased from Millipore (Bedford, Mass.). ATP, MgCl2, DTT, EDTA, MOPS and CHAPS were purchased from Sigma-Aldrich (St. Louis, Mo.). Wheat Germ Agglutinin (WGA) YSi SPA Scintillation Beads was purchased from GE healthcare life sciences (Piscataway, N.J.).
The kinase reaction was conducted in polystyrene 384-well matrix white plate from Thermo Fisher Scientific in a final volume of 25 μL. Inhibitors were first diluted serially in DMSO and added to the plate wells before the addition of other reaction components. The final concentration of DMSO in the assay was 0.5%. The PI3K assays were carried out at room temperature in 20 mM MOPS, pH 6.7, 10 mM MgCl2, 5 mM DTT and CHAPS 0.03%. Reactions were initiated by the addition of ATP, the final reaction mixture consisted of 20 μM PIP2, 20 μM ATP, 0.2 μCi [γ-^33P] ATP, 4 nM PI3Kδ. Reactions were incubated for 210 min and terminated by the addition of 40 μL SPA beads suspended in quench buffer: 150 mM potassium phosphate pH 8.0, 20% glycerol. 25 mM EDTA, 400 μM ATP. The final concentration of SPA beads was 1.0 mg/mL. After the plate sealing, plates were shaken overnight at room temperature and centrifuged at 1800 rpm for 10 minutes, the radioactivity of the product was determined by scintillation counting on Topcount (Perkin-Elmer). IC50 determination was performed by fitting the curve of percent control activity versus the log of the inhibitor concentration using the GraphPad Prism 3.0 software.
On the technique in general: SPA uses beads or plates that emit light when radiolabelled molecules are held near them.

Sequence of PI3Kδ (p110δ/p85α) (O00329 whole entry, species assumed): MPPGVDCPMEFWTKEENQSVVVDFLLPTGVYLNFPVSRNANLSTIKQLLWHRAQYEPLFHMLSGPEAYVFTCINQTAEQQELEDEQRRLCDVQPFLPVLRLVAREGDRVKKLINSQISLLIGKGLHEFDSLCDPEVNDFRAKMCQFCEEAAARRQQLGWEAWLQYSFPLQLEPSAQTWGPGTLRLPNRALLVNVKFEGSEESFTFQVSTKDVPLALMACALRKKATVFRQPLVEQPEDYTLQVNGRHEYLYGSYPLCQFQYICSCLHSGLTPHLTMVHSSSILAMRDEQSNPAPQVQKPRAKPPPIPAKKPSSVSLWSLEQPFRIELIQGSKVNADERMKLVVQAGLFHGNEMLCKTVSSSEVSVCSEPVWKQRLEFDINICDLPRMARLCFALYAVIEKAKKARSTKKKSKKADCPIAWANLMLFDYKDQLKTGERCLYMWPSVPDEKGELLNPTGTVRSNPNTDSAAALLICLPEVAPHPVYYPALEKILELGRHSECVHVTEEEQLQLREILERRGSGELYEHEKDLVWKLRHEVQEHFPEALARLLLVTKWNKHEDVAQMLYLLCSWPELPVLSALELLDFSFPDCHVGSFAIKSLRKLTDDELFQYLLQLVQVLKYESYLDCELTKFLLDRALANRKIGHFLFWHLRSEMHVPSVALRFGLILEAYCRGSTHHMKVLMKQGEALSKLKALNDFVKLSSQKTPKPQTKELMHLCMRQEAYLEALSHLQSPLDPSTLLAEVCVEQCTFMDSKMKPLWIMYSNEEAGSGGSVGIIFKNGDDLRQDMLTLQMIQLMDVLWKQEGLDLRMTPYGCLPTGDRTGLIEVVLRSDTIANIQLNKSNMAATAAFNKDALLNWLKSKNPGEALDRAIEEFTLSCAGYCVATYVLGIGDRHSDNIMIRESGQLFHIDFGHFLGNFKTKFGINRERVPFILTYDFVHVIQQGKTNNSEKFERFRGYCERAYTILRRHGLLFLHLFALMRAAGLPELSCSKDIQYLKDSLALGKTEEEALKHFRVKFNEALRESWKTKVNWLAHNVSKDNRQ
Sequence of PI3Kδ (p110δ/p85α) (P27986 whole entry partner, species assumed): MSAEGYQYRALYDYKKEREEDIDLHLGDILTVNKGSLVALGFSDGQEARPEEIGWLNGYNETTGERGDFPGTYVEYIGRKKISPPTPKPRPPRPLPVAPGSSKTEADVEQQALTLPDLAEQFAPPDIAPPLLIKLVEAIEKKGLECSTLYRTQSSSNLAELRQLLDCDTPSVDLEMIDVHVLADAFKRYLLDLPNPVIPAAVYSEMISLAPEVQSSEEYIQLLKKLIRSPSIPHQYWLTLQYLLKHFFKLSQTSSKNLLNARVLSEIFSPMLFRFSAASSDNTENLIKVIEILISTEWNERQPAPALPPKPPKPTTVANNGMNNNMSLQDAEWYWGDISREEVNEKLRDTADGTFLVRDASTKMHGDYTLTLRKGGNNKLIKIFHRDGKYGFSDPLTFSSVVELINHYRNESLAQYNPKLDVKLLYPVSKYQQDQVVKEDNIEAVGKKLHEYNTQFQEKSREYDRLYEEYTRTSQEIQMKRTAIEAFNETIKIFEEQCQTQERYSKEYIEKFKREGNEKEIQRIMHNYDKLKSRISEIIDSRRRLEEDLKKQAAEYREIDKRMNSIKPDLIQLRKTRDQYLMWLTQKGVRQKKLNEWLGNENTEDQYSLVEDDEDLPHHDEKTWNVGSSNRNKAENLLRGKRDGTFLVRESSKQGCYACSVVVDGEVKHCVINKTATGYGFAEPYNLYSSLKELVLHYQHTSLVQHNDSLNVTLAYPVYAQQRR

Turning to `Cc1csc2nc(C(C)Nc3ncnc4[nH]ccc34)c(-c3cc(F)cc(F)c3)c(=O)n12` (stereo not drawn) [Example 17, 6-(3,5-difluorophenyl)-3-methyl-7-[1-(7H-pyrrolo[2,3-d]pyrimidin-4-ylamino)ethyl]-5H-[1,3]thiazolo[3,2-a]pyrimidin-5-one], the IC50 (usually the midpoint of a concentration-inhibition curve) fell in the range of 100 to 500 nM.
The value for `Cc1csc2nc(C(C)Nc3nc(F)nc4[nH]cnc34)c(-c3cc(F)cc(F)c3)c(=O)n12` (stereo not drawn) [Example 18, 6-(3,5-difluorophenyl)-7-{1-[(2-fluoro-9H-purin-6-yl)amino]ethyl}-3-methyl-5H-[1,3]thiazolo[3,2-a]pyrimidin-5-one] was 100 to 500 nM; that for `Cc1csc2nc(C(C)Nc3ncnc4[nH]cnc34)c(-c3ccncc3)c(=O)n12` (stereo not drawn) [Example 19, 3-methyl-7-[1-(9H-purin-6-ylamino)ethyl]-6-pyridin-4-yl-5H-[1,3]thiazolo[3,2-a]pyrimidin-5-one] was 100 to 500 nM; that for `Cc1csc2nc(C(C)Nc3ncnc4[nH]cnc34)c(-c3nccs3)c(=O)n12` (stereo not drawn) [Example 20, 3-methyl-7-[1-(9H-purin-6-ylamino)ethyl]-6-(1,3-thiazol-2-yl)-5H-[1,3]thiazolo[3,2-a]pyrimidin-5-one trifluoroacetic acid salt] was under 50 nM.
`Cc1csc2nc(C(C)Nc3ncnc4[nH]cnc34)c(-c3cscn3)c(=O)n12` (stereo not drawn) [Example 21, 3-methyl-7-[1-(9H-purin-6-ylamino)ethyl]-6-(1,3-thiazol-4-yl)-5H-[1,3]thiazolo[3,2-a]pyrimidin-5-one trifluoroacetic acid salt] had an IC50 of under 50 nM.
On to `Cc1csc2nc(C(C)Nc3ncnc4[nH]cnc34)c(-c3ccc(F)cc3)c(=O)n12` (stereo not drawn) [Example 22, 6-(4-fluorophenyl)-3-methyl-7-[1-(9H-purin-6-ylamino)ethyl]-5H-[1,3]thiazolo[3,2-a]pyrimidin-5-one trifluoroacetic acid salt], for which the IC50 was in the range of 50 to 100 nM.
The value for `CC(Nc1nc(N)nc2[nH]cnc12)c1nc2sccn2c(=O)c1-c1cc(F)cc(F)c1` (stereo not drawn) [Example 24, 7-{1-[(2-amino-9H-purin-6-yl)amino]ethyl}-6-(3,5-difluorophenyl)-5H-[1,3]thiazolo[3,2-a]pyrimidin-5-one] was over 500 nM; that for `CC(Nc1ncnc2[nH]cnc12)c1nc2sccn2c(=O)c1-c1cc(F)cc(F)c1` (stereo not drawn) [Example 25, 6-(3,5-difluorophenyl)-7-[1-(9H-purin-6-ylamino)ethyl]-5H-[1,3]thiazolo[3,2-a]pyrimidin-5-one] was over 500 nM; that for `CC(Nc1nc(N)nc2[nH]cnc12)c1nc2sccn2c(=O)c1-c1cccc(F)c1` (stereo not drawn) [Example 26, 7-{1-[(2-amino-9H-purin-6-yl)amino]ethyl}-6-(3-fluorophenyl)-5H-[1,3]thiazolo[3,2-a]pyrimidin-5-one] was 100 to 500 nM.
In the case of `CC(Nc1nc(N)nc2[nH]cnc12)c1nc2sccn2c(=O)c1-c1ccccc1` (stereo not drawn) [Example 27, 7-{1-[(2-amino-9H-purin-6-yl)amino]ethyl}-6-phenyl-5H-[1,3]thiazolo[3,2-a]pyrimidin-5-one], the IC50 is 100 to 500 nM.
For the compound `CC(Nc1ncnc2[nH]cnc12)c1nc2sccn2c(=O)c1-c1cccc(F)c1` (stereo not drawn) [Example 28, 6-(3-fluorophenyl)-7-[1-(9H-purin-6-ylamino)ethyl]-5H-[1,3]thiazolo[3,2-a]pyrimidin-5-one], the IC50 is over 500 nM.
Compound `CC(Nc1ncnc2[nH]cnc12)c1nc2sccn2c(=O)c1-c1ccccc1` (stereo not drawn) [Example 29, 6-phenyl-7-[1-(9H-purin-6-ylamino)ethyl]-5H-[1,3]thiazolo[3,2-a]pyrimidin-5-one] came in with a 50% inhibitory concentration (IC50) of over 500 nM.
The value for `Cc1ccc(-c2c(C(C)Nc3ncnc4[nH]cnc34)nc3scc(C)n3c2=O)cc1` (stereo not drawn) [Example 31, 3-methyl-6-(4-methylphenyl)-7-[1-(9H-purin-6-ylamino)ethyl]-5H-[1,3]thiazolo[3,2-a]pyrimidin-5-one trifluoroacetic acid salt] was 100 to 500 nM; that for `Cc1csc2nc(C(C)Nc3nc(N)nc4[nH]cnc34)c(-c3cccc(Cl)c3)c(=O)n12` (stereo not drawn) [Example 32, 7-{1-[(2-amino-9H-purin-6-yl)amino]ethyl}-6-(3-chlorophenyl)-3-methyl-5H-[1,3]thiazolo[3,2-a]pyrimidin-5-one trifluoroacetic acid salt] was 50 to 100 nM; that for `Cc1csc2nc(C(C)Nc3nc(N)nc4[nH]cnc34)c(-c3ccccc3F)c(=O)n12` (stereo not drawn) [Example 33, 7-{1-[(2-amino-9H-purin-6-yl)amino]ethyl}-6-(2-fluorophenyl)-3-methyl-5H-[1,3]thiazolo[3,2-a]pyrimidin-5-one trifluoroacetic acid salt] was under 50 nM.
The value for `Cc1csc2nc(C(C)Nc3nc(N)nc4[nH]cnc34)c(-c3cccc(F)c3F)c(=O)n12` (stereo not drawn) [Example 34, 7-{1-[(2-amino-9H-purin-6-yl)amino]ethyl}-6-(2,3-difluorophenyl)-3-methyl-5H-[1,3]thiazolo[3,2-a]pyrimidin-5-one trifluoroacetic acid salt] was under 50 nM; that for `Cc1csc2nc(C(C)Nc3nc(N)nc4[nH]cnc34)c(-c3cc(F)cc(Cl)c3)c(=O)n12` (stereo not drawn) [Example 35, 7-{1-[(2-amino-9H-purin-6-yl)amino]ethyl}-6-(3-chloro-5-fluorophenyl)-3-methyl-5H-[1,3]thiazolo[3,2-a]pyrimidin-5-one trifluoroacetic acid salt] was 50 to 100 nM; that for `Cc1csc2nc(C(C)Nc3ncnc4[nH]cnc34)c(-c3cccc(Cl)c3)c(=O)n12` (stereo not drawn) [Example 36, 6-(3-chlorophenyl)-3-methyl-7-[1-(9H-purin-6-ylamino)ethyl]-5H-[1,3]thiazolo[3,2-a]pyrimidin-5-one trifluoroacetic acid salt] was 100 to 500 nM.
The value for `Cc1csc2nc(C(C)Nc3ncnc4[nH]cnc34)c(-c3cc(F)cc(Cl)c3)c(=O)n12` (stereo not drawn) [Example 37, 6-(3-chloro-5-fluorophenyl)-3-methyl-7-[1-(9H-purin-6-ylamino)ethyl]-5H-[1,3]thiazolo[3,2-a]pyrimidin-5-one trifluoroacetic acid salt] was 100 to 500 nM.
In the case of `Cc1csc2nc(C(C)Nc3nc(N)nc4[nH]cnc34)c(-c3cncc(F)c3)c(=O)n12` (stereo not drawn) [Example 38, 7-{1-[(2-amino-9H-purin-6-yl)amino]ethyl}-6-(5-fluoropyridin-3-yl)-3-methyl-5H-[1,3]thiazolo[3,2-a]pyrimidin-5-one trifluoroacetic acid salt], the IC50 is 50 to 100 nM.
For `Cc1csc2nc(C(C)Nc3ncnc4[nH]cnc34)c(-c3ccccc3F)c(=O)n12` (stereo not drawn) [Example 40, 6-(2-fluorophenyl)-3-methyl-7-[1-(9H-purin-6-ylamino)ethyl]-5H-[1,3]thiazolo[3,2-a]pyrimidin-5-one trifluoroacetic acid salt], the IC50 was under 50 nM.
Turning to `Cc1csc2nc(C(C)Nc3ncnc4[nH]cnc34)c(-c3cccc(F)c3F)c(=O)n12` (stereo not drawn) [Example 41, 6-(2,3-difluorophenyl)-3-methyl-7-[1-(9H-purin-6-ylamino)ethyl]-5H-[1,3]thiazolo[3,2-a]pyrimidin-5-one trifluoroacetic acid salt], the IC50 lay within 50 to 100 nM.
The value for `Cc1csc2nc(C(C)Nc3ncnc4[nH]cnc34)c(-c3cncc(F)c3)c(=O)n12` (stereo not drawn) [Example 42, 6-(5-fluoropyridin-3-yl)-3-methyl-7-[1-(9H-purin-6-ylamino)ethyl]-5H-[1,3]thiazolo[3,2-a]pyrimidin-5-one trifluoroacetic acid salt] was 100 to 500 nM; that for `Cc1csc2nc(C(C)Nc3ncnc4[nH]cnc34)c(-c3cc(F)ccc3F)c(=O)n12` (stereo not drawn) [Example 45, 6-(2,5-difluorophenyl)-3-methyl-7-[1-(9H-purin-6-ylamino)ethyl]-5H-[1,3]thiazolo[3,2-a]pyrimidin-5-one trifluoroacetic acid salt] was under 50 nM.
The value for `Cc1csc2nc([C@H](C)Nc3nc(O)nc4[nH]cnc34)c(-c3cccc(F)c3)c(=O)n12` [Example 47, 6-(3-Fluorophenyl)-7-{(1S)-1-[(2-hydroxy-9H-purin-6-yl)amino]ethyl}-3-methyl-5H-[1,3]thiazolo[3,2-a]pyrimidin-5-one] was 100 to 500 nM.
Consider `CC(Nc1ncnc2[nH]cnc12)c1nc2scc(C(F)(F)F)n2c(=O)c1-c1cccc(F)c1` (stereo not drawn) [Example 48, 6-(3-Fluorophenyl)-7-[1-(9H-purin-6-ylamino)ethyl]-3-(trifluoromethyl)-5H-[1,3]thiazolo[3,2-a]pyrimidin-5-one], for which the IC50 is 50 to 100 nM.
The value for `Cc1cccc2nc(C(C)Nc3ncnc4[nH]cnc34)c(-c3ccccc3)c(=O)n12` (stereo not drawn) [Example 49, 6-Methyl-3-phenyl-2-[1-(9H-purin-6-ylamino)ethyl]-4H-pyrido[1,2-a]pyrimidin-4-one trifluoroacetic acid salt] was under 50 nM.
